# From ChEMBL document CHEMBL4680146, “Current progress in antimalarial pharmacotherapy and multi-target drug discovery” (Eur J Med Chem, 2020)
# Columns and labels:
# Plasmodium falciparum [1] = test: Antimalarial activity against chloroquine-sensitive Plasmodium falciparum 3D7 infected in human red blood cells incubated for 48 hrs by [3H]-hypoxanthine incorporation assay; format: functional, organism-based, RBC; conditions: 3D7, Erythrocyte
# [2] = Inhibition of Plasmodium falciparum DHFR
# Plasmodium falciparum [3] = test: Antimalarial activity against chloroquine-resistant Plasmodium falciparum Dd2; format: functional, organism-based
# Falcipain 2 = molecular target: T1, Falcipain 2 (Plasmodium falciparum, UniProt Q9N6S8); test: Inhibition of Plasmodium falciparum FP-2
# T1 sequence (Q9N6S8 whole entry): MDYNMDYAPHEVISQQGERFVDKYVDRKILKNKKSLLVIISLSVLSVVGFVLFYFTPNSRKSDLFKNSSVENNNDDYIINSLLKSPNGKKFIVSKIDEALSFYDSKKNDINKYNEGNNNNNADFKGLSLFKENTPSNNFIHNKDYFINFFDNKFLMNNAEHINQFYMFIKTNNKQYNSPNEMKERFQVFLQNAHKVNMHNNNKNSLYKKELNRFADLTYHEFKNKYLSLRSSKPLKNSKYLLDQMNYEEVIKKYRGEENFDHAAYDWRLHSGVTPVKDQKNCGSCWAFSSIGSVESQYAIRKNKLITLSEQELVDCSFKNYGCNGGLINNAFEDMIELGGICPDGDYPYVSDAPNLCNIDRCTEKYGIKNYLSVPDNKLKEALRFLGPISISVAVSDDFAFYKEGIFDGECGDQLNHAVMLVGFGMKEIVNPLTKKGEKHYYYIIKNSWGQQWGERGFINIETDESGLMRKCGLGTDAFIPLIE
# Plasmodium falciparum [4] = test: Antimalarial activity against ring stage Plasmodium falciparum 3D7 measured for 72 hrs by absorbance method; format: functional, organism-based; conditions: 3D7, 72 h
# [5] = Inhibition of Plasmodium falciparum DHODH expressed in Escherichia coli BL21(DE3) using L-dihydroorotate as substrate measured every 90 secs for 45 mins by absorbance method
# Plasmodium falciparum [6] = test: Antimalarial activity against trophozoite stage Plasmodium falciparum 3D7 harboring NLuc infected in human erythrocytes assessed as inhibition of new permeability pathway by measuring infected erythrocytes sensitivity to sorbitol-mediated lysis by luminescence method; format: functional, organism-based; conditions: 3D7, Erythrocyte
# Hemozoin = test: Inhibition of beta-hematin assessed as heme alkylation at 2 molar equivalents incubated for 30 mins by HPLC analysis relative to control; design: scale not given: the % may be the effect or the level left
# Plasmodium falciparum [7] = test: Antimalarial activity against chloroquine-sensitive Plasmodium falciparum F32(CQS)Tanzania incubated for 48 hrs by classical radioactive microdilution method; format: functional, organism-based
# Plasmodium falciparum [8] = test: Antimalarial activity against chloroquine-sensitive Plasmodium falciparum 3D7 by SyBR Green method
# Plasmodium vivax [9] = test: Antimalarial activity against Plasmodium vivax infected in human blood incubated for 24 to 36 hrs; format: functional, organism-based
# Plasmodium falciparum [10] = test: Antimalarial activity against multi-resistant Plasmodium falciparum infected in human erythrocytes assessed as inhibition of [G-3H]hypoxanthine uptake incubated for 42 hrs by liquid scintillation counting method; format: functional, organism-based; conditions: Erythrocyte
# Plasmodium falciparum [11] = test: Antimalarial activity against chloroquine-resistant Plasmodium falciparum T996 infected in human erythrocytes assessed as inhibition of [G-3H]hypoxanthine uptake preincubated for 24 hrs followed by [G-3H]hypoxanthine addition and measured after 18 to 24 hrs by scintillation spectrometry; format: functional, organism-based; conditions: T996, Erythrocyte
# Plasmodium falciparum [12] = test: Antimalarial activity against chloroquine-resistant Plasmodium falciparum K1 infected in human erythrocytes assessed as inhibition of [G-3H]hypoxanthine uptake preincubated for 24 hrs followed by [G-3H]hypoxanthine addition and measured after 18 to 24 hrs by scintillation spectrometry; format: functional, organism-based; conditions: K1, Erythrocyte
# Plasmodium falciparum [13] = test: Antimalarial activity against Plasmodium falciparum 3D7A asexual forms assessed as inhibition of [G-3H]hypoxanthine uptake incubated for 24 hrs followed by [G-3H]hypoxanthine addition and measured after 18 hrs by liquid scintillation spectrometry; format: functional, organism-based
# Plasmodium falciparum [14] = test: Antimalarial activity against Plasmodium falciparum infected in human erythrocytes assessed as inhibition of [G-3H]hypoxanthine uptake incubated for 42 hrs by liquid scintillation spectrometry; format: functional, organism-based; conditions: Erythrocyte
# Plasmodium falciparum [15] = test: Antimalarial activity against Plasmodium falciparum 3D7 asexual forms incubated for 72 hrs by luminescence method; format: functional, organism-based; conditions: 3D7, 72 h
# Plasmodium vivax [16] = test: Antimalarial activity against Plasmodium vivax infected in human blood incubated for 40 to 44 hrs; format: functional, organism-based
structure (smiles),measurement,setting,value
C[C@@H]1CC[C@H]2[C@@H](C)C(OCCN3CC[N+](CCNc4ccnc5cc(Cl)ccc45)(CCOC4O[C@@H]5O[C@@]6(C)CC[C@H]7[C@H](C)CC[C@@H]([C@H]4C)[C@@]57OO6)CC3)O[C@@H]3O[C@@]4(C)CC[C@@H]1[C@]32OO4 (some centres undefined),IC50,Plasmodium falciparum [1],29.5 nM
Nc1ncc(NCc2ccc(CCNC(=O)c3ccc(F)cc3)cc2)c(N)n1,IC50,[2],8800 nM
same,IC50,Plasmodium falciparum [3],1100 nM
same,IC50,Falcipain 2,6800 nM
C[C@@H]1CC[C@H]2[C@@H](C)C(OCCN(CCCNc3ccnc4cc(Cl)ccc34)CCOC3O[C@@H]4O[C@@]5(C)CC[C@H]6[C@H](C)CC[C@@H]([C@H]3C)[C@@]46OO5)O[C@@H]3O[C@@]4(C)CC[C@@H]1[C@]32OO4 (some centres undefined),IC50,Plasmodium falciparum [1],8.7 nM
COc1cccc(NC(=O)CSc2nc(-c3ccccc3Cl)ns2)c1,EC50,Plasmodium falciparum [4],2480 nM
same,EC50,[5],158000 nM
same,EC50,Plasmodium falciparum [6],367 nM
O=C(Nc1ccc(-c2cn3ccsc3n2)cc1)c1ccc(S(=O)(=O)N2CCCCCC2)cc1,EC50,[5],> 250000 nM
same,EC50,Plasmodium falciparum [6],222 nM
CC(C)C1=C[C@H]2OC3(CCC(NCCNc4ccnc5cc(Cl)ccc45)CC3)OO[C@@]2(C)CC1 (some centres undefined),Activity,Hemozoin,60%
C[C@@H]1CC[C@H]2[C@@H](C)C(=O)O[C@@H]3O[C@@]4(C)CC[C@@H]1[C@]32OO4 [ARTEMISININ],IC50,Plasmodium falciparum [7],7 nM
C[C@H]1[C@H](OC(=O)CCC(=O)O)O[C@@H]2O[C@@]3(C)CC[C@H]4[C@H](C)CC[C@@H]1[C@@]24OO3 [ARTESUNATE],IC50,Plasmodium falciparum [8],2 nM
Nc1ccc(S(=O)(=O)c2ccc(N)cc2)cc1 [DAPSONE],IC50,Plasmodium vivax [9],1620 nM
C[C@H]1c2cccc(O)c2C(=O)C2=C(O)[C@]3(O)C(=O)C(C(N)=O)=C(O)[C@@H](N(C)C)[C@@H]3[C@@H](O)[C@@H]21 [DOXYCYCLINE],IC50,Plasmodium falciparum [10],5100 nM
CCN(CCO)CCCC(C)Nc1ccnc2cc(Cl)ccc12 (centres undefined) [HYDROXYCHLOROQUINE],IC50,Plasmodium falciparum [11],21.5 nM
same,IC50,Plasmodium falciparum [12],2220 nM
CCCCN(CCCC)CC(O)c1cc(Cl)cc2c1-c1ccc(Cl)cc1/C2=C/c1ccc(Cl)cc1 (centres undefined) [LUMEFANTRINE],IC50,Plasmodium falciparum [13],3.2 nM
Clc1ccc2c(N3CCN(CCCN4CCN(c5ccnc6cc(Cl)ccc56)CC4)CC3)ccnc2c1 [PIPERAQUINE],IC50,Plasmodium falciparum [14],81.3 nM
COc1cc(NC(C)CCCN)c2ncccc2c1 (centres undefined) [PRIMAQUINE],IC50,Plasmodium falciparum [13],> 10000 nM
CCc1nc(N)nc(N)c1-c1ccc(Cl)cc1 [PYRIMETHAMINE],IC50,Plasmodium falciparum [15],4.35 nM
same,IC50,Plasmodium falciparum [3],> 10000 nM
C=C[C@H]1CN2CC[C@H]1C[C@H]2[C@H](O)c1ccnc2ccc(OC)cc12 [QUININE],IC50,Plasmodium falciparum [13],66 nM
COc1ncnc(NS(=O)(=O)c2ccc(N)cc2)c1OC [SULFADOXINE],IC50,Plasmodium vivax [16],0.01 µg/mL
